Measured values from PMC4498294, “Tetrahydroisoquinolines affect the whole-cell phenotype of Mycobacterium tuberculosis by inhibiting the ATP-dependent MurE ligase” (Journal of Antimicrobial Chemotherapy, 2015).
≈ marks a conversion by molar mass, not a printed value. Like-named read-outs stand apart in the source and are kept apart here. Marks after values point to notes of the source that are not given here.

Key:
[1] = tested on: M. tuberculosis H37Rv; settings: virulent M. tuberculosis H37Rv strain; cited from earlier work
[2] = tested on: M. tuberculosis H37Rv; experiment: SPOTi growth inhibition assay, M. tuberculosis H37Rv; type: cell-based; settings: Mycobacterium tuberculosis, H37RV, SPOTi, read-out: MIC M. tuberculosis H37Rv
[3] = tested on: murine macrophage cell line RAW264.7; parameters: method as in Gupta and Bhakta.[27]; settings: ref Gupta and Bhakta.[27]; cited from earlier work
[4] = tested on: M. bovis BCG Pasteur; experiment: microbe, parasite or virus in culture; type: cell-based; settings: Mycobacterium tuberculosis variant bovis BCG, BCG
[5] = tested on: M. smegmatis mc^2155; experiment: SPOTi assay, M. smegmatis; type: cell-based, Mycobacterium smegmatis; settings: Mycolicibacterium smegmatis, MC^2155
[6] = tested on: M. aurum; experiment: SPOTi assay, M. aurum; type: cell-based, Mycobacterium aurum; settings: Mycolicibacterium aurum
[7] = tested on: M. bovis BCG; type: cell-based; settings: M. bovis BCG treated at 4 × MIC for 48 h (D-cycloserine 100 mg/L, 39 160 mg/L); 100 cells
[8] = tested on: murine macrophage cell line RAW264.7; experiment: Eukaryotic cell toxicity assay, RAW264.7; type: cell-based; settings: Mus musculus, read-out: GIC50 RAW264.7
[9] = biological target: T1, CYP 2C9 (Homo sapiens, UniProt P11712); experiment: CYP450 inhibition assay, CYP 2C9; type: in vitro ADME; parameters: dose or concentration left out as unconfirmed; settings: CYP baculosomes with recombinant human CYP2C9, probe fluorogenic substrate (not named); human recombinant enzymes; read-out: Mean % inhibtion CYP 2C9
T1 construct: purchased; host or cells: baculosomes (insect-cell microsomes; own knowledge)
Experimental: (§1) The compounds originally dissolved in DMSO were added to PBS to give a resulting concentration of […]. CYP baculosomes containing cDNA for a single human P450 isozyme, the fluorogenic substrate and the NADPH were added to the test solution. The reaction was incubated at 37°C for at least 1 h. Fluorogenic substrates metabolized by CYP enzymes result in highly fluorescent products in aqueous solution. The inhibition of CYP prevents this metabolism, which corresponds to a decrease in the fluorescence signal. The fluorescence was measured on a plate reader.

[10] = Aqueous kinetic solubility; type: physicochemical; settings: aqueous with cosolvent or surfactant or cyclodextrin, kinetic from dmso stock, 5% DMSO in PBS, 21°C
Experimental: The compounds were equilibrated in 5% DMSO in PBS at 21°C for 24 h. The samples were then centrifuged at 15000 g for 10 min. A 100 μL sample of the supernatant was carefully collected and the soluble amount of compound quantified using LC-MS/MS. A standard curve for each compound was prepared in 100% acetonitrile. Solubility results are reported as low (<0.1 mg/mL), medium (0.1–0.5 mg/mL) and high (>0.5 mg/mL).

[11] = biological target: T2, CYP 2C19 (Homo sapiens, UniProt P33261); experiment: CYP450 inhibition assay, CYP 2C19; type: in vitro ADME; parameters: dose or concentration left out as unconfirmed; settings: CYP baculosomes with recombinant human CYP2C19, probe fluorogenic substrate (not named); human recombinant enzymes; read-out: Mean % inhibtion CYP 2C19
T2 construct: purchased; host or cells: baculosomes (insect-cell microsomes; own knowledge)
Experimental: as §1

[12] = Human hepatocyte stability assay; type: in vitro ADME; parameters: half-life / hepatocyte CLint: dose or concentration left out as unconfirmed
Experimental: The compounds originally dissolved in DMSO were added to PBS to give a resulting concentration of 1 mM. Hepatocytes were then added to the solution and the reaction was incubated at 37°C for up to 120 min. Acetonitrile with internal standard was added to stop the incubation. The samples were centrifuged and the supernatant was then analysed by HPLC-MS/MS to detect the parent compound.

[13] = Human microsome stability assay; type: in vitro ADME; parameters: half-life: dose or concentration left out as unconfirmed
Experimental: Microsomes and NADPH were then added to the solution and the reaction was incubated at 37°C for up to 60 min. Acetonitrile (300 μL) with internal standard was added to stop the incubation. The samples were centrifuged and the supernatant was then analysed by HPLC-MS/MS to detect the parent compound.

[14] = biological target: T3, CYP 2D6 (Homo sapiens, UniProt P10635); experiment: CYP450 inhibition assay, CYP 2D6; type: in vitro ADME; parameters: dose or concentration left out as unconfirmed; settings: CYP baculosomes with recombinant human CYP2D6, probe fluorogenic substrate (not named); human recombinant enzymes; read-out: Mean % inhibtion CYP 2D6
T3 construct: purchased; host or cells: baculosomes (insect-cell microsomes; own knowledge)
Experimental: as §1

[15] = biological target: MurE (Rv2158c) protein of M. tuberculosis H37Rv (Mycobacterium tuberculosis, UniProt P9WJL3); experiment: Mtb-MurE HPLC inhibition assay; type: biochemical; settings: HPLC assay, 37°C 30 min
[16] = tested on: MDR-1; experiment: MDCK cell permeability assay; type: in vitro ADME, canine; settings: dog, MDCK-MDR1, MDCK MDR-1 monolayer, 10 μM, 30 min
[17] = tested on: MDCK cells carrying the MDR-1 gene; experiment: MDCK cell permeability assay; type: in vitro ADME, canine; settings: MDCK MDR-1 monolayer, 10 μM, 30 min, apical to basolateral
[18] = MDCK cell permeability assay; type: in vitro ADME, canine; settings: dog, MDCK-MDR1; MDCK MDR-1 monolayer, class
[19] = biological target: T4, CYP 1A2 (Homo sapiens, UniProt P05177); experiment: CYP450 inhibition assay, CYP 1A2; type: in vitro ADME; parameters: dose or concentration left out as unconfirmed; settings: CYP baculosomes with recombinant human CYP1A2, probe fluorogenic substrate (not named); human recombinant enzymes; read-out: Mean % inhibtion CYP 1A2
T4 construct: purchased; host or cells: baculosomes (insect-cell microsomes; own knowledge)
T4 sequence (P05177 1-516): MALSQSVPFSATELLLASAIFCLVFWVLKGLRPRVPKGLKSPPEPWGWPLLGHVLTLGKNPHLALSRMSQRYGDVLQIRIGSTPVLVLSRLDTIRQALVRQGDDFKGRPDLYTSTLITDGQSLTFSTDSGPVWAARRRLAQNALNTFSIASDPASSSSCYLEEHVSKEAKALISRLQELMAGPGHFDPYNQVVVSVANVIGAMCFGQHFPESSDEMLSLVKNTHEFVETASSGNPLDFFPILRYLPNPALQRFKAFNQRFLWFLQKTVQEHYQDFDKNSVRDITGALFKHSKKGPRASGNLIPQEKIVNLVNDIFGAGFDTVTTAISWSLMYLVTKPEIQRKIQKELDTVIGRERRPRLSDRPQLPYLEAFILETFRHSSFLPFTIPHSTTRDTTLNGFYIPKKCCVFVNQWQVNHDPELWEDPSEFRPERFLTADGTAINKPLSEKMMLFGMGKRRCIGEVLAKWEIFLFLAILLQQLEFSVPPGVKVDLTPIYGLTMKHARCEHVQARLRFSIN
Experimental: as §1

[20] = biological target: P-glycoprotein (Homo sapiens, UniProt P08183); experiment: in vitro; settings: dog, MDCK-MDR1
Experimental: All dose solutions contained 10 μM propranolol as an internal standard. MDCK cells carrying the MDR-1 gene were used to seed filters that were exposed to a fixed volume of the donor solution containing the compound of interest. The compound's ability to traverse the monolayer and appear in the receiver compartment was measured over a 30 min period. Bidirectional permeability measurements were derived by examining the transfer of compound from both the apical to the basolateral compartment and vice versa. Sample analysis was conducted using LC-MS/MS with the detection settings optimized for each test compound.

[21] = biological target: T5, CYP 3A4 (Homo sapiens, UniProt P08684); experiment: CYP450 inhibition assay, CYP 3A4; type: in vitro ADME; parameters: dose or concentration left out as unconfirmed; settings: CYP baculosomes with recombinant human CYP3A4, probe fluorogenic substrate (not named); human recombinant enzymes; read-out: Mean % inhibtion CYP 3A4
T5 construct: purchased; host or cells: baculosomes (insect-cell microsomes; own knowledge)
Experimental: as §1

[22] = 336 h, read-out: MIC M. bovis BCG, SPOTi, 2 weeks at 37°C
[23] = read-out: MIC M. bovis BCG, SPOTi, value in square brackets
[24] = RAW264.7, value in square brackets
[25] = murine macrophage cell line RAW264.7

Chain of MurE (Rv2158c) protein of M. tuberculosis H37Rv (P9WJL3 whole entry, looked up): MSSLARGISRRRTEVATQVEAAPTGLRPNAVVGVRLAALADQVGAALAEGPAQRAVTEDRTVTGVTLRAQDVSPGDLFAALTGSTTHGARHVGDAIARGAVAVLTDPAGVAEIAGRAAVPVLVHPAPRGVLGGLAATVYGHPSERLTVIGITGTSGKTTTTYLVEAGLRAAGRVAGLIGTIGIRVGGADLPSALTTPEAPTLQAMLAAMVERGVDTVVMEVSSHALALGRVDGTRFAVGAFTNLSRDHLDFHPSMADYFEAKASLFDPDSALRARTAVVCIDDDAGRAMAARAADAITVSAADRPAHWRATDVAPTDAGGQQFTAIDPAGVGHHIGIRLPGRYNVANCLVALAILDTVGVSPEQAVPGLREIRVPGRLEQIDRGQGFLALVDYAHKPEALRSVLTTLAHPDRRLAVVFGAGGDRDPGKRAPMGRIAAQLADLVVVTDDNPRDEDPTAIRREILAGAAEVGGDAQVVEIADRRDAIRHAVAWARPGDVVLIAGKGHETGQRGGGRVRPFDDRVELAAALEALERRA
Chain of P-glycoprotein (P08183 whole entry): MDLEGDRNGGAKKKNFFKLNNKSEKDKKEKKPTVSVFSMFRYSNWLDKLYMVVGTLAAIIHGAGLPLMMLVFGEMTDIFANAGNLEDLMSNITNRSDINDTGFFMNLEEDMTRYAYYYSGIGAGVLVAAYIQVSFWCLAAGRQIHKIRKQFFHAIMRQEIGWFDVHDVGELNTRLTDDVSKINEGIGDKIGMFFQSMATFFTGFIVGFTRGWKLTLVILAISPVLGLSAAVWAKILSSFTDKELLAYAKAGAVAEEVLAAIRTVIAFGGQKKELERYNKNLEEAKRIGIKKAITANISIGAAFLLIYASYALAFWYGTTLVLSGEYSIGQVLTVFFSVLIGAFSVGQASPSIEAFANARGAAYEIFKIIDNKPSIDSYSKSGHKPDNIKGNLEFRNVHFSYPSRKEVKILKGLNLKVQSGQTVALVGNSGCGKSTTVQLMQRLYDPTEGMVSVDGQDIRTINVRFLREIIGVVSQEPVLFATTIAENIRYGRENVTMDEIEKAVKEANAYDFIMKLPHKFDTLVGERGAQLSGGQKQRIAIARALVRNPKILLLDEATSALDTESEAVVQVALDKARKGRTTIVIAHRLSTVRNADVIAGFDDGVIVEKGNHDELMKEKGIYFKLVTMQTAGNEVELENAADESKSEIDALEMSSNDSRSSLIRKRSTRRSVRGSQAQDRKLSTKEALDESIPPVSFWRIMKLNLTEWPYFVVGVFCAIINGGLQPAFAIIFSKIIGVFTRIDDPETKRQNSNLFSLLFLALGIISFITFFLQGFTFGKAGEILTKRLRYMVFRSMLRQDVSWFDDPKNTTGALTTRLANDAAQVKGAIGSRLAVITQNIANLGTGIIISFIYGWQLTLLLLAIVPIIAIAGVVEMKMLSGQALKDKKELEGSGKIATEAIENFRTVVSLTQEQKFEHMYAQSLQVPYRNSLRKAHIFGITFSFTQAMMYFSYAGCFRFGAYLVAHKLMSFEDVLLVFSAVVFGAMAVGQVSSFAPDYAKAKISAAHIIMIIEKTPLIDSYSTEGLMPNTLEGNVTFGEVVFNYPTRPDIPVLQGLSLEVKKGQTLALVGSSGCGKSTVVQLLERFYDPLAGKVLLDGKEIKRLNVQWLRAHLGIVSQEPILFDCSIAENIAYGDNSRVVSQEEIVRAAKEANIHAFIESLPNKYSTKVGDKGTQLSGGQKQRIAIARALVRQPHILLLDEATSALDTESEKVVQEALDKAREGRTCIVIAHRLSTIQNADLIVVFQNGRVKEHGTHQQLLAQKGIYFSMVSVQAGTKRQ
T3 sequence (P10635 whole entry): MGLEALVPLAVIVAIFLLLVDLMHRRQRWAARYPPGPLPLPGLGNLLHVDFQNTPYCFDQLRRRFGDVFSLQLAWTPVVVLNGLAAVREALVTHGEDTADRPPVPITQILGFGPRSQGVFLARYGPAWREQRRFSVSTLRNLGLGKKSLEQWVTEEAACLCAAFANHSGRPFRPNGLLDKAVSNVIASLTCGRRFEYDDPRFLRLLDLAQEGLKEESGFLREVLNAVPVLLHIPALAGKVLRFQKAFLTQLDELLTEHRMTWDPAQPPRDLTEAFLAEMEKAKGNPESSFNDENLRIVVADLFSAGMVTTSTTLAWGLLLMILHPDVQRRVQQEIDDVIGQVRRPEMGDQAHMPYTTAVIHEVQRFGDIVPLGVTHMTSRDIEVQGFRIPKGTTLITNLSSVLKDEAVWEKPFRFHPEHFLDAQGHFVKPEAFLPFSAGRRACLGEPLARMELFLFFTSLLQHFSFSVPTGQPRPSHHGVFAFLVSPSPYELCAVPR
T2 sequence (P33261 whole entry): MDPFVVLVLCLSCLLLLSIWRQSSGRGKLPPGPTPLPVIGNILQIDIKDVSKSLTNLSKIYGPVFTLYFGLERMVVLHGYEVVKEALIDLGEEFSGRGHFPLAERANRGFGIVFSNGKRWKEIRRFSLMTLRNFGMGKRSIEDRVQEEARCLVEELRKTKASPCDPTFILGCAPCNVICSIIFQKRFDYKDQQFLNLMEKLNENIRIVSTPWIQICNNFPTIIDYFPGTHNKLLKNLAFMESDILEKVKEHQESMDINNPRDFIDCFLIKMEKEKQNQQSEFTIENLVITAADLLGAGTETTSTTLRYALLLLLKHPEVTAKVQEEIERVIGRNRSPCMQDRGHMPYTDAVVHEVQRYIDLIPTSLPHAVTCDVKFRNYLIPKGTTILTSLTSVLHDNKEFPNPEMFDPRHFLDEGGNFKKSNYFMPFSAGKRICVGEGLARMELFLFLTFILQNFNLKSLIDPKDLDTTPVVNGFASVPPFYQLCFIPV
T1 sequence (P11712 whole entry): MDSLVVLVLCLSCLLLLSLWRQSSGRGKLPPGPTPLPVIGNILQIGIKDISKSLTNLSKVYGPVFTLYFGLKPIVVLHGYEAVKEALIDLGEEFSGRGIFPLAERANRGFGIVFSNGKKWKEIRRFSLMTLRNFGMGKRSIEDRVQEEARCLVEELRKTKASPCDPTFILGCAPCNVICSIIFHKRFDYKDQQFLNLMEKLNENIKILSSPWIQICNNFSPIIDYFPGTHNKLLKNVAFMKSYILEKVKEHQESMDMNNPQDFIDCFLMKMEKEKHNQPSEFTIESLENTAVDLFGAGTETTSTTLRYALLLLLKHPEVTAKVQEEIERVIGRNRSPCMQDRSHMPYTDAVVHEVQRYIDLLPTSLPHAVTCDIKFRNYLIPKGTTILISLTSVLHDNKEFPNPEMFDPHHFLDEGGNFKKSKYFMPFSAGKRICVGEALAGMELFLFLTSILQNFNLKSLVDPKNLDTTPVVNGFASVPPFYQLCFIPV
T5 sequence (P08684 whole entry): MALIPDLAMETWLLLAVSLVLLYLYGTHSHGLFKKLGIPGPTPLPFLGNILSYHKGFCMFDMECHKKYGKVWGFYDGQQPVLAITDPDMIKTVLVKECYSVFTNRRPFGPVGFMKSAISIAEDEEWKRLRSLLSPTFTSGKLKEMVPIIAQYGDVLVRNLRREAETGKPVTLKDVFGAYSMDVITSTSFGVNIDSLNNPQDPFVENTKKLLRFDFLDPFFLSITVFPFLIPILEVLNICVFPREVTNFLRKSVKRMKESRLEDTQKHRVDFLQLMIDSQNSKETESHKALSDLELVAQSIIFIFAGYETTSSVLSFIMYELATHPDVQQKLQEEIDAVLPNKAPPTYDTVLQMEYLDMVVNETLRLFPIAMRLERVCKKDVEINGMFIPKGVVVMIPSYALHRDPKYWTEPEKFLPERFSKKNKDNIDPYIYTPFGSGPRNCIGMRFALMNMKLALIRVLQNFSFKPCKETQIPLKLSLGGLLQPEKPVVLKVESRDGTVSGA

**Q.** Which “MIC M. tuberculosis H37Rv” value [1] does the source give for `COc1cc2c(cc1OC)-c1c3c(cc4c1[C@H](C2)NCC4)OCO3` [(-)-Nordicentrine] here?
**A.** The value was 12.5 µg/mL (≈ 38.4 µM).

**Q.** Which results are given for `CO[C@H]1/C=C/O[C@@]2(C)Oc3c(C)c(O)c4c(O)c(c(/C=N/N5CCN(C)CC5)c(O)c4c3C2=O)NC(=O)/C(C)=C\C=C\[C@H](C)[C@H](O)[C@@H](C)[C@@H](O)[C@@H](C)[C@H](OC(C)=O)[C@@H]1C` [Rifampicin, reference compound]?
**A.** MIC ([2]; 336 h, 2 weeks at 37°C): 0.05 µg/mL; MIC ([2]; value in square brackets): 0.061 µM; GIC50 RAW264.7 [3]: 700^a mg/L; MIC [4, 22]: 0.05 µg/mL; MIC [4, 23]: 0.061 µM; MIC [5]: 0.1 µg/mL (≈ 0.122 µM); MIC [6]: 0.1 µg/mL (≈ 0.122 µM)

**Q.** Which MIC ([2]; 336 h, 2 weeks at 37°C) does the source give for `COc1ccc(Cl)c2c1C(Cc1cc3c(cc1Br)OCO3)NCC2` (centres unmarked) [Compound 39] here?
**A.** Its MIC is 40 µg/mL.

**Q.** What about the MIC ([2]; value in square brackets) of the same compound?
**A.** Its MIC is 97 µM.

**Q.** And the MIC [4, 22]?
**A.** Its MIC is 40 µg/mL.

**Q.** And the MIC [4, 23]?
**A.** The MIC was 97 µM.

**Q.** And the cell length [7]?
**A.** The cell length was 4.7 ± 1.4 μm.

**Q.** And the IC50 [8, 24]?
**A.** Its IC50 is 178 µM.

**Q.** What about the IC50 [8, 25] of the same compound?
**A.** Its IC50 is 73 µg/mL.

**Q.** Which results are given for `Oc1ccc(Br)c2c1C(Cc1ccc3c(c1)OCO3)NCC2` (centres unmarked) [Compound 28]?
**A.** inhibition [9]: 81.8%; solubility kinetic at 24 h [10]: 800 µg/mL (≈ 2210 µM); solubility at 24 h ([10]; read-out: aqueous solubility (class)): > 500 µg/mL; MIC [4, 22]: 20 µg/mL; MIC [4, 23]: 55 µM; inhibition [11]: 97.5%; hepatic extraction ratio ([12]; hepatocyte stability assay): > 0.6; t1/2 hepatocytes ([12]; human hepatocytes): 23.2 min; half-life ([12]; human, hepatocytes, human hepatocytes, read-out: t1/2 hepatocytes): 23.2 min; hepatocyte CLint ([12]; human, hepatocytes, in vivo hepatic intrinsic clearance prediction values): 17.4 µL/min/1e6 cells; t1/2 microsomes ([13]; human liver microsomes): 9.8 min; Mean % microsome turnover ([13]; human liver microsomes, 0 min): -5.33e-15%; Mean compound remaining ([13]; human liver microsomes, 0 min): 100.00; Microsomal stability ([13]; human liver microsomes, 0 min): 4.60; Mean % microsome turnover ([13]; human liver microsomes, 15 min): 64.61%; Mean compound remaining ([13]; human liver microsomes, 15 min): 35.39; Microsomal stability ([13]; human liver microsomes, 15 min): 3.57; Mean % microsome turnover ([13]; human liver microsomes, 30 min): 88.00%; Mean compound remaining ([13]; human liver microsomes, 30 min): 12.00; Microsomal stability ([13]; human liver microsomes, 30 min): 2.48; Mean % microsome turnover ([13]; human liver microsomes, 60 min): 92.24%; Mean compound remaining ([13]; human liver microsomes, 60 min): 7.76; Microsomal stability ([13]; human liver microsomes, 60 min): 2.03; half-life ([13]; human, liver microsomes, read-out: t1/2 microsomes): 9.81 min; inhibition [14]: 92.9%; IC50 [15]: < 111 µM; Papp A→B at 30 min, 10 μM ([16]; apical to basolateral): 1.7 ×10⁻⁶ cm/s; Papp B→A at 30 min, 10 μM ([16]; basolateral to apical): 18.8 ×10⁻⁶ cm/s; Papp A-B [17]: 1.7 cm/sec, x10-6; Papp A→B at 30 min, 10 μM [18]: < 2 ×10⁻⁶ cm/s; inhibition [19]: 81.4%; efflux ratio [20]: 11.3; inhibition [21]: 93.2%; IC50 [8, 24]: 130 µM; IC50 [8, 25]: 47 µg/mL
